Experimental data published in patent publication US11883526B2 (priority 2019, dated 2024).
Like-named read-outs stand apart in the source and are kept apart here. Marks after values point to notes of the source that are not given here.

Legend:
[1] = Pharmacokinetics of intranasal esketamine in healthy subjects (Example 9); details: for AUClast / AUC∞ / t1/2 / Cmax / Metabolite/Parent Ratio AUClast / Metabolite/Parent Ratio Cmax / Metabolite/Parent Ratio AUC∞: mean; for tmax: median; for Metabolite/Parent Ratio AUClast / Metabolite/Parent Ratio Cmax / Metabolite/Parent Ratio AUC∞: noresketamine/esketamine
Protocol: This was an open-label, single-center study. The subjects were healthy Caucasian men and women, 20 to 55 years of age, inclusive. […] The solution consisted of:
Blood samples (4 mL each) for determination of esketamine and noresketamine plasma concentrations were collected into the appropriate collection tube (e.g., Vacutainer®) at timepoints 0.00, 0.12, 0.20, 0.37, 0.53, 0.67, 0.83, 1.00, 1.25, 1.50, 2.00, 3.00, 4.00, 6.00, 9.00, 12.00, 18.00, and 24.00 h. The total amount of blood to be drawn for clinical laboratory tests and PK evaluations is approximately 327 mL.
Plasma samples were analyzed for esketamine and noresketamine concentrations using the validated, specific and sensitive liquid chromatography coupled to tandem mass spectrometry (LC-MS/MS) achiral method of Example 8.
Serial PK blood samples (4 mL each) were collected for a 24-hour period from each subject (Periods 1, 2, and 3). […] Statistical Methods 1.6.4.1. Sample Size
The following key parameters of esketamine and noresketamine in plasma were calculated using noncompartmental methods and actual sampling times: Cmax, tmax, AUClast, AUC∞, t1/2,λ, and λz.

[2] = Description: This example provides an LC-MS/MS method for the determination of ketamine and norketamine in sodium heparin human plasma using ketamine-d4 and norketamine-d4 as the respective internal standards (IS).
[3] = tested on: female Sprague-Dawley rats; assay: Single dose neurotoxicity study: mortality, clinical observations, body weight; format: in vivo, rat
Protocol: The injection volume was 5 mL/kg.
Body weight and body weight gain were measured daily.

[4] = tested on: MDD/TRD subjects; details: quetiapine 52-week safety study; Symbyax over 76 weeks; cited from earlier work
[5] = noresketamine after esketamine 28 mg
[6] = noresketamine after esketamine 56 mg
[7] = noresketamine after esketamine 56 mg, n = 13
[8] = noresketamine after esketamine 84 mg
[9] = noresketamine after esketamine 84 mg, n = 12
[10] = single dose study, (+)MK-801 maleate 1 mg/kg subcutaneous

## N[C@]1(c2ccccc2Cl)CCCCC1=O [noresketamine]
[1]; across 28, 56 and 84 mg
  mean ratio of noresketamine to esketamine, AUClast: 3.62 to 4.32
  mean ratio of noresketamine to esketamine, AUC∞: 3.80 to 4.46
  mean ratio of noresketamine to esketamine, Cmax: 1.96 to 2.55
  mean t1/2: 7.48 to 7.74 h
[1]; across the 3 treatment groups
  variability of AUC (AUClast and AUC∞): 17.0% to 21.3
  variability of Cmax (percent coefficient of variation): 25.8% to 33.7
[1]; healthy subjects, across 28, 56 and 84 mg intranasal regimens
  median tmax: 1.25 to 1.5 h
[1]; [5]
  AUClast: 454 ng·h/mL
  AUC∞: 508 ng·h/mL
  t1/2: 7.74 h
  tmax: 1.25 h
[1]; [6]
  AUClast: 851 ng·h/mL
  tmax: 1.50 h
[1]; [7]
  AUC∞: 924^c h*ng/mL
  t1/2: 7.71^c h
[1]; [8]
  AUClast: 1287 ng·h/mL
  tmax: 1.50 h
[1]; [9]
  AUC∞: 1392^b h*ng/mL
  t1/2: 7.48^b h
[1]; noresketamine in plasma after intranasal esketamine 28 mg (Treatment A)
  Cmax: 92.8 ng/mL
[1]; noresketamine in plasma after intranasal esketamine 56 mg (Treatment B)
  Cmax: 154 ng/mL
[1]; noresketamine in plasma after intranasal esketamine 84 mg (Treatment C)
  Cmax: 241 ng/mL
[1]; esketamine 28 mg
  Metabolite/Parent Ratio AUClast: 3.62
  Metabolite/Parent Ratio Cmax: 1.96
[1]; esketamine 28 mg, n = 12
  Metabolite/Parent Ratio AUC∞: 3.80^b
[1]; esketamine 56 mg
  Metabolite/Parent Ratio AUClast: 4.07
  Metabolite/Parent Ratio Cmax: 2.28
[1]; esketamine 56 mg, n = 12
  Metabolite/Parent Ratio AUC∞: 4.22^b
[1]; esketamine 84 mg
  Metabolite/Parent Ratio AUClast: 4.32
  Metabolite/Parent Ratio Cmax: 2.55
[1]; esketamine 84 mg, n = 11
  Metabolite/Parent Ratio AUC∞: 4.46^d

## NC1(c2ccccc2Cl)CCCCC1=O (centres unmarked) [Norketamine]
[2]; freeze (−20° C.)/thaw (ice-water bath)
  QC sample freeze/thaw stability: 3 freeze (−20° C.)/thaw (ice-water bath) cycles
[2]; freeze (−20° C.)/thaw (room temperature)
  QC sample freeze/thaw stability: 3 freeze (−20° C.)/thaw (room temperature) cycles
[2]; human plasma QC sample at −20° C.
  QC sample long-term storage stability: 1552 days at −20 °C
[2]; human plasma QC sample, room temperature
  QC sample bench-top stability: 68.5 hours at room temp
[2]; ketamine/norketamine spike solutions at −20° C.
  Stock solution stability (spike solutions): 610 days at −20 °C for ketamine/norketamine spike solutions
[2]; room temperature
  Processed sample stability: 146.5 hours at room temperature
[2]; room temperature and ice-water bath (0-4° C.)
  Whole Blood Stability: 120 minutes at room temperature and in an ice-water bath (0-4° C.)
[2]; stock solutions at room temperature under white light
  Stock solution stability: 6 h
[2]; stock solutions at −20° C.
  Stock solution stability: 15100 h

## C[C@]12N[C@H](Cc3ccccc31)c1ccccc12.O=C(O)/C=C\C(=O)O [Positive control]
[3]; [10]
  Clinical observation incidence: Ataxia: 27/30 ***
  Clinical observation incidence: Catalepsy: 15/30 ***
  Clinical observation incidence: Chromodacryorrhea: 24/30 ***
  Clinical observation incidence: Decreased general activity: 30/30 ***
  Clinical observation incidence: Decubitus: 30/30 ***
  Clinical observation incidence: Increased general activity: 4/30
  Clinical observation incidence: Narrowed palpebral fissure: 4/30
  Clinical observation incidence: Piloerection: 8/30**
  Clinical observation incidence: Salivation (out of normal): 17/30 ***
  Clinical observation incidence: bradypnoea: 12/30 ***

## OCCOCCN1CCN(C2=Nc3ccccc3Sc3ccccc32)CC1 [quetiapine]
[4]
  rate of discontinuation due to adverse events in long-term study in MDD/TRD subjects: 23.7%

## (+)MK-801 maleate [reference compound]
[3]; 1 mg/kg sc, first 48 hours after treatment
  body weight loss: 13-14%
[3]; single sc dose 1 mg/kg, single and repeated dose studies
  mortality: No mortality
